In patent US12233047B2, “Pharmaceutical combination and use thereof” (ASCENTAGE PHARMA (SUZHOU) CO., LTD., priority 2019, dated 2025):
Positions count from the first letter of the chain named.

What was measured:
[1] = target: T1, FLT3 (D835Y) (Homo sapiens, UniProt P36888, D835Y); test: KINOMEscan kinase binding assay, FLT3 (D835Y)
T1 construct: host or cells: T7 phage in E. coli (BL21-derived) or HEK-293
T1 sequence (P36888 27-993 D835Y): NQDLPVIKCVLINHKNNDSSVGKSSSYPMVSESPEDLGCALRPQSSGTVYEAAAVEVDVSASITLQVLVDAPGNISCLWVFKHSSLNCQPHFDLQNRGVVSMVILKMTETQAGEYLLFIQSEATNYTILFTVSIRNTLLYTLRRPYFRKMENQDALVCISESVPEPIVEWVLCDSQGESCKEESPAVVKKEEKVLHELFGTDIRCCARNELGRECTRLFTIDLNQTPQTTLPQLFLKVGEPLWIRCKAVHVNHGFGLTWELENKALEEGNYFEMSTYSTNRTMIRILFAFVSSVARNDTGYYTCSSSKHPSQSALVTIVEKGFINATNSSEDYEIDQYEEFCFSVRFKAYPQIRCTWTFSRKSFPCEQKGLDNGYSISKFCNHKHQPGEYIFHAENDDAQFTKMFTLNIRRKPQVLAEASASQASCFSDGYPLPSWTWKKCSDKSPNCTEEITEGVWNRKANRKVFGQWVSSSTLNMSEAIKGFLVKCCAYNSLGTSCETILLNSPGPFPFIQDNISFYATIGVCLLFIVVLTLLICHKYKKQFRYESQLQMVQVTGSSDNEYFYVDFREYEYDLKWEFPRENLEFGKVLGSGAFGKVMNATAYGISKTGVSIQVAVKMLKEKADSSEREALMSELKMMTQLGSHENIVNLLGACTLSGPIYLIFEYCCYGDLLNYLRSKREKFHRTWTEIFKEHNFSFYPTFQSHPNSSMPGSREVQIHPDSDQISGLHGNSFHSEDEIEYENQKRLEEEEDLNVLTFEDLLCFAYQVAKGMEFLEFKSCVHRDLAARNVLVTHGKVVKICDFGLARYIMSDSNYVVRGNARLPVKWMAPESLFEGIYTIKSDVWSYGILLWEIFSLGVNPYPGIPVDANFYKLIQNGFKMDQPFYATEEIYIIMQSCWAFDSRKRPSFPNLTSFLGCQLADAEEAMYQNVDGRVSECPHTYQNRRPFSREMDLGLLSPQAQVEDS
Procedure: (§1) The kinase assay was conducted using KINOMEscan™.
(§2) Kinase-tagged T7 phage strains were grown in parallel in 24-well blocks in an E. coli host derived from the BL21 strain. E. coli were grown to log-phase and infected with T7 phage from a frozen stock (multiplicity of infection=0.4) and incubated with shaking at 32° C. until lysis (90-150 minutes). The lysates were centrifuged (6,000×g) and filtered (0.2 μm) to remove cell debris. The remaining kinases were produced in HEK-293 cells and subsequently tagged with DNA for qPCR detection. Streptavidin-coated magnetic beads were treated with biotinylated small molecule ligands for 30 minutes at room temperature to generate affinity resins for kinase assays. The liganded beads were blocked with excess biotin and washed with blocking buffer (SeaBlock (Pierce), 1% BSA, 0.05% Tween 20, 1 mM DTT) to remove unbound ligand and to reduce non-specific phage binding. Binding reactions were assembled by combining kinases, liganded affinity beads, and test compound (Compound 23) in 1× binding buffer (20% SeaBlock, 0.17×PBS, 0.05% Tween 20, 6 mM DTT). Test compound were prepared as 40× stocks in 100% DMSO and directly diluted into the assay. All reactions were performed in polypropylene 384-well plates in a final volume of 0.04 ml. […] The kinase concentration in the eluates was measured by qPCR. […]

[2] = target: T2, FLT3 (N841I) (Homo sapiens, UniProt P36888, N841I); test: KINOMEscan kinase binding assay, FLT3 (N841I)
T2 construct: host or cells: T7 phage in E. coli (BL21-derived) or HEK-293
T2 sequence (P36888 27-993 N841I): T1 sequence (P36888 27-993 D835Y) with Y809D, N815I
Procedure: as §1, §2

Cc1ccc(C(=O)Nc2ccc(CN3CCN(C)CC3)c(C(F)(F)F)c2)cc1C#Cc1cnc2[nH]ncc2c1 [Compound 23, 3-(2-(1H-pyrazolo[3,4-b]pyridin-5-yl)ethynyl)-4-methyl-N-(4-((4-methylpiperazin-1-yl)methyl)-3-(trifluoromethyl)phenyl)benzamide]
% Ctrl@10 nM ([1]; 10 nM): 42 % Ctrl | % Ctrl@100 nM ([1]; 100 nM): 17 % Ctrl | % Ctrl@10 nM ([2]; 10 nM): 2.9 % Ctrl | % Ctrl@100 nM ([2]; 100 nM): 0.05 % Ctrl
